Source: patent US20080153795A1, “Medicaments and methods for wound healing” (RENOVO LIMITED, priority 2006, published 2008)

What was measured:
[1] = tested on: human punch biopsy wounds; experiment: Human punch biopsy wounds, re-epithelialisation by histology; assay type: in vivo; details: 100 μl intradermal 10 minutes before wounding, 3 mm punch biopsy
Description: Healthy male and post-menopausal female volunteers were chosen as the subjects of the study. 44 healthy subjects were recruited to the study, of whom, 40 were healthy males (aged 18-75 years) and 4 were post-menopausal females (aged 53-69 years). The average age of subjects recruited to this study was 42 years. The post-menopausal status of female subjects was confirmed by quantification of serum levels of oestradiol and follicle stimulating hormone (FSH). Serum levels of oestradiol were required to be <90 pmol/L, and follicle stimulating hormone levels >31 IU/L.
Each subject had three wounds treated with active drug, one corresponding to each of three concentrations of the medicaments produced; a fourth wound was treated with placebo control. The test medicaments and placebo control were each administered intradermally, as a single dose, at a volume of 100 μl per wound site (the upper, inner aspect of each arm), 10-minutes before wounding.
Subjects received 3 mm punch biopsies at the sites where the medicaments had been administered. After wounding, all sites received moist wound healing dressings (Standard Care).
Biopsy sites were excised, using a 5 mm punch biopsy, three days after wounding. Excised wounds were preserved for histological assessment of re-epithelialisation by image analysis. All histological assessments of early wound healing events were made using preserved 5 micron-thickness wound sections taken from the widest part of each excised biopsy site. Sections were stained with Haematoxylin and Eosin to aid visualisation of structural features, and measurements made using image analysis software. The distance traveled by the epithelium is derived from two histological measurements: the freehand total wound diameter and the freehand non-epithelialised wound diameter. […] Percentage re-epithelialisation for the new epithelium was calculated as a proportion of the total wound diameter. The average percentage re-epithelialisation value was calculated from the 44 wounds of each treatment group.

[2] = application of 100 μg in a gel to an epidermal surface, six hours from application; cited from earlier work

## C[C@]12CC[C@@H]3c4ccc(O)cc4CC[C@H]3[C@@H]1CC[C@@H]2O [17β-oestradiol]
[1]; 0.02 μg/100 μl (0.00002%) medicament
  re-epithelialisation three days after wounding: 37.4%
[1]; 0.1 μg/100 μl (0.0001%) medicament
  re-epithelialisation three days after wounding: 42.3%
[1]; 0.2 μg/100 μl (0.0002%) medicament
  re-epithelialisation three days after wounding: 42.6%

## C[C@]12CC[C@@H]3c4ccc(O)cc4CC[C@H]3[C@@H]1CC[C@@H]2O [oestradiol]
[2]
  applied oestradiol found in the skin or having passed through the skin: 15.7 µg
